For one series, the system named is cells. Nature of the series: Cell death assay (Annexin V / propidium iodide). Type of series: cell-based. The procedure: Cell death assay. Cells (2×10^5 cells/well) were seeded in a 6-well plate and treated with the indicated drugs for 6 hours. Cells were dissociated using Accutase (Thermo Fisher; Cat. #00-4555-56) in order to avoid accidental exposure of phosphatidylserine on the outer plasma membrane. Cell death was evaluated with Dead Cell Apoptosis Kit with Annexin V Alexa Fluor™ 488 & Propidium Iodide (Thermo Fisher; Cat. #V13241) according to manufacturer's protocol. Data was acquired by BD LSRII flow cytometer system using BD FACSDiva software. Data was analyzed by FlowJo (BD).

For series [1], the system named is MEFs. Nature of the series: Mitochondrial aspect ratio (Mito AR), live cell imaging. To be noted: for activity to promote mitochondrial fusion or fision: MASMs: fusion, MFIs: fission; for capacity to promote mitochondrial fragmentation in cells (activity of MFI8 analogue): compared with MFI8; for mitochondrial aspect ratio: MEFs, MitoTracker Green.
Description: Live cell imaging. MEFs were seeded on chamber slides (MatTek Corporation: 35 mm dishes, No. 1.5, 14 mm glass diameter) at ˜70% confluence. […] Images were taken with Leica SP5 inverted confocal microscope. Data were analyzed with Image J software. >200 mitochondria were measured per condition in mitochondrial aspect ratio.
Measurement of mitochondrial aspect ratio (Mito AR). Images that depict stained mitochondria with mitotracker green were analyzed using FIJI We measured for each mitochondrion its length and width. Then, we divided the length by the width for each mitochondrion to get its mitochondrial aspect ratio. >200 mitochondria were measured per treatment.
Series [2] concerns the target T1, HR2 domain of MFN2 (residues 678-757) (Homo sapiens, UniProt O95140).
T1 sequence (O95140 678-757): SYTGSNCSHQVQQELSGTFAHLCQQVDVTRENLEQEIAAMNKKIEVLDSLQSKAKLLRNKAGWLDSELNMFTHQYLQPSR
Briefly: Microscale thermophoresis (MST) binding. To be noted: His-tagged MFN2-HR2, 30° C.
Description: Microscale Thermopheresis. Freshly purified His-tagged MFN2-HR2 domain was used for Microscale Thermophoresis (MST) binding studies. For protein labelling, a fresh stock of 5 μM His-tag-RED-tris-NTA 2nd generation dye (Nanotemper) in 25 mM Hepes pH 7.5, 100 mM NaCl, 0.005% Tween-20 (assay buffer) was used to label 500 nM of MFN2-HR2 in the same buffer. The labeling reaction was incubated for 30 min at RT and centrifuged at 15.000×g at 4° C. for 10 min. Labelled protein from the supernatant was kept on ice and used immediately. Compounds were serially diluted in 100% DMSO. Immediately before mixing with labeled protein, the dilution series was transferred in assay buffer to reach 2% DMSO. 10 μl of each compound in the final series was mixed with 10 μl of labeled protein and samples were incubated for 5 min at 30° C. before MST measurement using a MonolithNT.115 instrument (Nanotemper). Peptides were diluted in assay buffer plus 2% DMSO and treated as above. […] Kd values were obtained from non-linear regression fits of normalized data to a three or four parameter logistic curve, using GraphPad Prism 9.

Series [3] concerns MEFs. Briefly: Caspase-3/7 activation assay. It is filed as cell-based, mouse. To be noted: 6 hr, Caspase-Glo 3/7. The procedure:
Caspase-3/7 activation assay. Cells (5×10^3 cells/well) were seeded in a 96-well white plate and treated with MASM7, MFI8. Caspase 3/7 activation was measured after 6 hr by addition of the Caspase-Glo 3/7 reagent according to the manufacturer's protocol (Promega). Luminescence was detected by a F200 PRO microplate reader (TECAN). Caspase assays were performed in at least triplicate and the data normalized to vehicle-treated control wells. Dilutions of MASM7 or MFI8 were performed using a TECAN D300e Digital Dispenser from 10 mM stocks.

Series [4] concerns the molecule itself. Nature of the series: blue native PAGE of digitonin lysates of isolated MEF mitochondria, anti-MFN2 blot.

Starred links: 1 amine or outer side, 2 acyl side, 3 side chain; linkers in the order of their positions; H or OH if unused. Positions of bridges follow the written chain, without caps; N, C: chain ends. Non-standard residues stand in square brackets, D forms with d. Residues, ends and D or L forms follow the SMILES beside them. Chains are numbered I, II in the order given. Hexamethylenediamine = C(CCCN[*:2])CCN[*:1]; Dip = N[C@H](C(=O)O)C(c1ccccc1)c1ccccc1; Chg = N[C@H](C(=O)O)C1CCCCC1; NMeA = CN[C@@H](C)C(=O)O

On to `CN[C@@H](C)C(=O)N[C@H](C(=O)N1CCC[C@H]1C(=O)N[C@H](C(=O)NCCCCCCNC(=O)[C@@H](NC(=O)[C@@H]1CCCN1C(=O)[C@@H](NC(=O)[C@H](C)NC)C1CCCCC1)C(c1ccccc1)c1ccccc1)C(c1ccccc1)c1ccccc1)C1CCCCC1` [BV6, reference compound] (I: H-[NMeA][Chg]P[Dip] / II: H-[NMeA][Chg]P[Dip]; linker I:C-II:C via Hexamethylenediamine), for which, in the series on cells (deletion of MFNs), the “cell death upon BV6 treatment” value is “sensitized cells to BV6 treatment”.

Take `Cc1cccc(NC(C)c2ccccc2O)c1C` (centres unmarked) [MFI22, 2-(1-((2,3-Dimethylphenyl)amino)ethyl)phenol]: in the series on MEFs [1], the “activity to promote mitochondrial fusion or fision” value is “inability or weak activity” and the “capacity to promote mitochondrial fragmentation in cells (activity of MFI8 analogue)” value (shortened to “capacity … (activity of MFI8 analogue)”) is reported as “significantly reduced the capacity of the compound to promote mitochondrial fragmentation”. For the same molecule, the “direct binding to the HR2 domain of MFN2 (MST)” value (“direct binding to the HR2 domain” below) in series [2] is recorded as “did not demonstrate measurable binding”. In the series on cells (in combination with BV6), the “sensitization to BV6-induced cell death” value is “did not sensitize cells to BV6 treatment”. Also, the caspase-3/7 activity result in the series on MEFs [3] is recorded as “did not increase caspase-3/7 activity”.

As for `Cc1cccc(NCc2cc(Cl)ccc2O)c1C` [MFI23, 4-Chloro-2-(((2,3-dimethylphenyl)amino)methyl)phenol], in the series on MEFs [1], the mitochondrial aspect ratio entry is given as “decreasing” and the “capacity … (activity of MFI8 analogue)” value is reported as “minimal effect on the activity”. For the same molecule, the “direct binding to the HR2 domain” value in series [2] was “demonstrated direct binding”.

As for `Cc1cccc(NCc2cc(Cl)ccc2O)c1` [MFI24, 4-Chloro-2-((m-tolylamino)methyl)phenol], in the series with MEFs [1], the mitochondrial aspect ratio entry is listed as “did not reduce mitochondrial aspect ratio”.

Regarding `Cc1cccc(NC(C)c2cccc(Cl)c2)c1C` (centres unmarked) [MFI26, N-(1-(3-chlorophenyl)ethyl)-2,3-dimethylaniline], in the series on MEFs [1], the “activity to promote mitochondrial fusion or fision” value is reported as “inability or weak activity” and the “capacity … (activity of MFI8 analogue)” value was “detrimental for the activity”. Besides, the “direct binding to the HR2 domain” value in series [2] was “did not demonstrate measurable binding”.

B1: MFN2 (endogenous, in mitochondria isolated from MEFs) (other, mouse (MEFs), UniProt Q80U63 1-757, looked up)
chain: MSLLFSRCNSIVTVKKDKRHMAEVNASPLKHFVTAKKKINGIFEQLGAYIQESASFLEDTHRNTELDPVTTEEQVLDVKGYLSKVRGISEVLARRHMKVAFFGRTSNGKSTVINAMLWDKVLPSGIGHTTNCFLRVGGTDGHEAFLLTEGSEEKKSVKTVNQLAHALHQDEQLHAGSMVSVMWPNSKCPLLKDDLVLMDSPGIDVTTELDSWIDKFCLDADVFVLVANSESTLMQTEKQFFHKVSERLSRPNIFILNNRWDASASEPEYMEEVRRQHMERCTSFLVDELGVVDRAQAGDRIFFVSAKEVLSARVQKAQGMPEGGGALAEGFQVRMFEFQNFERQFEECISQSAVKTKFEQHTVRAKQIAEAVRLIMDSLHIAAQEQRVYCLEMREERQDRLRFIDKQLELLAQDYKLRIKQITEEVERQVSTAMAEEIRRLSVLVDEYQMDFHPSPVVLKVYKNELHRHIEEGLGRNLSDRCSTAIASSLQTMQQDMIDGLKPLLPVSMRNQIDMLVPRQCFSLSYDLNCDKLCADFQEDIEFHFSLGWTMLVNRFLGPKNSRRALLGYSDQVQRPLPLTPANPSMPPLPQSSLTQEELMVSMVTGLASLTSRTSMGILVVGGVVWKAVGWRLIALSFGLYGLLYVYERLTWTTKAKERAFKRQFVEYASEKLQLIISYTGSNCSHQVQQELSGTFAHLCQQVDITRDNLEQEIAAMNKKVEALDSLQSRAKLLRNKAGWLDSELNMFTHQYLQPSR
notes: whole, on cells; The protein stood in isolated mitochondria, not on whole cells; It was solubilised with digitonin and resolved by blue native PAGE; also called mitofusin-2
As for B1, in series [4], the binding result is “binds”.

The record behind these values is patent publication US20240366540A1, “MITOFUSIN INHIBITORS AND USES THEREOF” (Albert Einstein College of Medicine, priority 2021, published 2024).
